Results on 3 compounds are retold here after ChEMBL document CHEMBL3046019, “Prenylated xanthones: antiproliferative effects and enhancement of the growth inhibitory action of 4-hydroxytamoxifen in estrogen receptor-positive breast cancer cell line” (2012).

In one experiment the test system is NCI-H460. The experiment is described as follows: Growth inhibition of Homo sapiens (human) NCI-H460 cells after 48 hr by [3H]-thymidine incorporation assay. It is filed as functional.
Experiment [1] relates to MDA-MB-231. The experiment is described as follows: Antiproliferative activity against estrogen receptor negative Homo sapiens (human) MDA-MB-231 cells at 0.05 uM after 48 hr by SRB assay. It is filed as functional, cell-based.
The test system of experiment [2] is MCF7. The experiment is described as follows: Antiproliferative activity against estrogen receptor positive Homo sapiens (human) MCF7 cells at 0.05 uM after 48 hr by SRB assay. It is filed as functional, cell-based.
The subject of experiment [3] is MCF7. The experiment is described as follows: Growth inhibition of estrogen receptor positive Homo sapiens (human) MCF7 cells after 48 hr by [3H]-thymidine incorporation assay. It is filed as functional.
The subject of experiment [4] is MDA-MB-231. The experiment is described as follows: Antiproliferative activity against estrogen receptor negative Homo sapiens (human) MDA-MB-231 cells after 48 hr by SRB assay. Type of experiment: functional, cell-based.
The test system of experiment [5] is MCF7. Description: Antiproliferative activity against estrogen receptor positive Homo sapiens (human) MCF7 cells after 48 hr by SRB assay. It is filed as functional, cell-based.
For experiment [6], the system named is MDA-MB-231. The experiment is described as follows: Growth inhibition of estrogen receptor negative Homo sapiens (human) MDA-MB-231 cells after 48 hr by [3H]-thymidine incorporation assay. It is filed as functional.
Experiment [7] has as its system MCF7. The experiment is described as follows: Antiproliferative activity against estrogen receptor positive Homo sapiens (human) MCF7 cells in steroid free medium after 48 hr by SRB assay. Type of experiment: functional, cell-based.
Experiment [8] relates to MCF7. The experiment is described as follows: Antiproliferative activity against estrogen receptor positive Homo sapiens (human) MCF7 cells in complete medium after 48 hr by SRB assay. It is filed as functional, cell-based.
Experiment [9] has as its system MCF7. The experiment is described as follows: Antiproliferative activity against estrogen receptor positive Homo sapiens (human) MCF7 cells in steroid free medium after 48 hr by SRB assay in presence of ER antagonist 4-OHT. Type of experiment: functional, cell-based.

Active and inactive are the calls of the source. The calls are words filed in the database; no cut-off is given here.

`CC(C)=CCOc1ccc2c(=O)c3ccccc3oc2c1O`: the figures for the GI50 in the experiment on NCI-H460, in the experiment with MCF7 [3] and with MDA-MB-231 [6] were 20.4 µM, 14.2 µM and 29.1 µM, respectively. In addition, the outcome in the experiment on MDA-MB-231 [1] and in the experiment on MCF7 [2] was Active. Besides, the Activity entry in the experiment on MDA-MB-231 [4], in the experiment with MCF7 [5], with MCF7 [7] and in the experiment on MCF7 [8] was “Dose-dependent effect” each time.

In the case of `CC1(C)CCc2cc3c(=O)c4ccccc4oc3c(O)c2O1` [DIHYDRO-12-HYDROXY-2,2-DIMETHYL-2H,6H-PYRANO[3,2-B]XANTHEN-6-ONE], the concentration for 50% growth inhibition (GI50) stood at 22 µM with NCI-H460, 5.3 µM in the experiment with MCF7 [3] and 29 µM in the experiment with MDA-MB-231 [6]. For the same compound, the result with MDA-MB-231 [1], in the experiment with MCF7 [2] and in the experiment with MCF7 [9] was Active. Moreover, the Activity entry in the experiment on MDA-MB-231 [4], in the experiment with MCF7 [5], with MCF7 [7] and in the experiment on MCF7 [8] was “Dose-dependent effect” in each case.

Consider `CC(C)=CCOc1ccc2c(=O)c3ccccc3oc2c1OCC=C(C)C`, for which the values for the GI50 in the experiment on NCI-H460, in the experiment on MCF7 [3] and with MDA-MB-231 [6] were 30.7 µM, 21.8 µM and 39 µM, respectively.
